# Measurements: ChEMBL document CHEMBL6134875, “Farnesyl Transferase Inhibitors as a Novel Strategy for Targeting KRAS-Dependent Cancers” (2025)
# What was measured:
# Type in all cases: functional
# NCI-H2122 [1] = experiment: Antitumor activity against human NCI-H2122 cells harboring KRAS […] mutant xenografted in BALB/c nude mouse assessed as tumor volume at 15 mg/kg, po administered once daily and measured on day 27 in presence of adagrasib (reference value: 1559.54 +/- 225.48 mm3); settings: time 27 day
# NCI-H2122 [2] = experiment: Antitumor activity against human NCI-H2122 cells harboring KRAS […] mutant xenografted in BALB/c nude mouse assessed as tumor growth inhibition at 15 mg/kg, po administered once daily and measured on day 27 in presence of adagrasib; settings: NCI-H2122, 648 h, time 27 day, read-out: TGI
# NCI-H2122 [3] = experiment: Antitumor activity against human NCI-H2122 cells harboring KRAS […] mutant xenografted in BALB/c nude mouse assessed as tumor growth inhibition at 15 mg/kg, po administered twice daily and measured on day 27; settings: NCI-H2122, 648 h, time 27 day, read-out: TGI
# NCI-H2122 [4] = experiment: Antitumor activity against human NCI-H2122 cells harboring KRAS […] mutant xenografted in BALB/c nude mouse assessed as T/C ratio at 15 mg/kg, po administered once daily and measured on day 27 in presence of adagrasib relative to control; settings: time 27 day
# NCI-H2122 [5] = experiment: Antitumor activity against human NCI-H2122 cells harboring KRAS […] mutant xenografted in BALB/c nude mouse assessed as T/C ratio at 15 mg/kg, po administered twice daily and measured on day 27 relative to control; settings: time 27 day
# NCI-H2122 [6] = experiment: Antitumor activity against human NCI-H2122 cells harboring KRAS […] mutant xenografted in BALB/c nude mouse assessed as tumor volume at 15 mg/kg, po administered twice daily and measured on day 27 (reference value: 1559.54 +/- 225.48 mm3); settings: time 27 day
# NCI-H2122 [7] = experiment: Antitumor activity against human NCI-H2122 cells harboring KRAS […] mutant xenografted in BALB/c nude mouse assessed as T/C ratio at 100 mg/kg, po administered once daily and measured on day 27 relative to control; settings: time 27 day
# NCI-H2122 [8] = experiment: Antitumor activity against human NCI-H2122 cells harboring KRAS […] mutant xenografted in BALB/c nude mouse assessed as tumor volume at 100 mg/kg, po administered once daily and measured on day 27 (reference value: 1559.54 +/- 225.48 mm3); settings: time 27 day
# NCI-H2122 [9] = experiment: Antitumor activity against human NCI-H2122 cells harboring KRAS […] mutant xenografted in BALB/c nude mouse assessed as tumor growth inhibition at 100 mg/kg, po administered once daily and measured on day 27; settings: NCI-H2122, 648 h, time 27 day, read-out: TGI
# NCI-H2122 [10] = experiment: Antitumor activity against human NCI-H2122 cells harboring KRAS […] mutant xenografted in BALB/c nude mouse assessed as T/C ratio at 60 mg/kg, po administered once daily and measured on day 27 in presence of adagrasib relative to control; settings: time 27 day
# NCI-H2122 [11] = experiment: Antitumor activity against human NCI-H2122 cells harboring KRAS […] mutant xenografted in BALB/c nude mouse assessed as tumor growth inhibition at 60 mg/kg, po administered once daily and measured on day 27 in presence of adagrasib; settings: NCI-H2122, 648 h, time 27 day, read-out: TGI
# NCI-H2122 [12] = experiment: Antitumor activity against human NCI-H2122 cells harboring KRAS […] mutant xenografted in BALB/c nude mouse assessed as tumor volume at 60 mg/kg, po administered twice daily and measured on day 27 (reference value: 1559.54 +/- 225.48 mm3); settings: time 27 day
# NCI-H2122 [13] = experiment: Antitumor activity against human NCI-H2122 cells harboring KRAS […] mutant xenografted in BALB/c nude mouse assessed as tumor growth inhibition at 60 mg/kg, po administered twice daily and measured on day 27; settings: NCI-H2122, 648 h, time 27 day, read-out: TGI
# NCI-H2122 [14] = experiment: Antitumor activity against human NCI-H2122 cells harboring KRAS […] mutant xenografted in BALB/c nude mouse assessed as tumor volume at 60 mg/kg, po administered once daily and measured on day 27 in presence of adagrasib (reference value: 1559.54 +/- 225.48 mm3); settings: time 27 day
# NCI-H2122 [15] = experiment: Antitumor activity against human NCI-H2122 cells harboring KRAS […] mutant xenografted in BALB/c nude mouse assessed as T/C ratio at 60 mg/kg, po administered twice daily and measured on day 27 relative to control; settings: time 27 day
# NCI-H2122 [16] = experiment: Antitumor activity against human NCI-H2122 cells harboring KRAS […] mutant xenografted in BALB/c nude mouse assessed as tumor growth inhibition at 60 mg/kg, po administered once daily and measured on day 27 in presence of sotorasib; settings: NCI-H2122, 648 h, time 27 day, read-out: TGI
# NCI-H2122 [17] = experiment: Antitumor activity against human NCI-H2122 cells harboring KRAS […] mutant xenografted in BALB/c nude mouse assessed as tumor volume at 60 mg/kg, po administered once daily and measured on day 27 in presence of sotorasib (reference value: 1559.54 +/- 225.48 mm3); settings: time 27 day
# NCI-H2122 [18] = experiment: Antitumor activity against human NCI-H2122 cells harboring KRAS […] mutant xenografted in BALB/c nude mouse assessed as T/C ratio at 60 mg/kg, po administered once daily and measured on day 27 in presence of sotorasib relative to control; settings: time 27 day
smiles,measurement,setting,value
Cn1cncc1[C@@]1(N)c2ccc(C#N)c(c2)COc2cccc(c2)-c2cc(C#N)nc3ccc1cc23,Activity,NCI-H2122 [1],187.07 mm3
same,inhibition in vivo at 15 mg/kg,NCI-H2122 [2],88%
same,inhibition in vivo at 15 mg/kg,NCI-H2122 [3],31.9%
same,T/C,NCI-H2122 [4],12%
same,T/C,NCI-H2122 [5],68.13%
same,Activity,NCI-H2122 [6],1062.47 mm3
C=C(F)C(=O)N1CCN(c2nc(OC[C@@H]3CCCN3C)nc3c2CCN(c2cccc4cccc(Cl)c24)C3)C[C@@H]1CC#N [ADAGRASIB],T/C,NCI-H2122 [7],38.49%
same,Activity,NCI-H2122 [8],600.26 mm3
same,inhibition in vivo at 100 mg/kg,NCI-H2122 [9],61.5%
C=CC(=O)N1CCN(c2nc(=O)n(-c3c(C)ccnc3C(C)C)c3nc(-c4c(O)cccc4F)c(F)cc23)[C@@H](C)C1 [SOTORASIB],Activity,NCI-H2122 [8],643.34 mm3
same,T/C,NCI-H2122 [10],41.25%
same,inhibition in vivo at 100 mg/kg,NCI-H2122 [9],58.8%
Cn1cncc1[C@@](N)(c1ccc(Cl)cc1)c1ccc2c(c1)c(-c1cccc(Cl)c1)cc(=O)n2C [TIPIFARNIB],inhibition in vivo at 60 mg/kg,NCI-H2122 [11],88.6%
same,Activity,NCI-H2122 [12],1000.38 mm3
same,inhibition in vivo at 60 mg/kg,NCI-H2122 [13],35.9%
same,Activity,NCI-H2122 [14],177.5 mm3
same,T/C,NCI-H2122 [15],64.15%
same,T/C,NCI-H2122 [10],11.38%
same,inhibition in vivo at 60 mg/kg,NCI-H2122 [16],85%
same,Activity,NCI-H2122 [17],233.84 mm3
same,T/C,NCI-H2122 [18],14.99%
